# Experiments:
# [1] = tested on: D. maculata; test: Field trapping Experiment 1, Rescue W•H•Y traps; type: in vivo, Dolichovespula maculata; conditions: Exp 1; HIPV added to WHY attractant in the top chamber, or WHY alone
# Method: (§1) Three field trapping experiments were carried out during late July to early August 2009, in residential and woody areas around Spokane, Wash., USA, using the newly marketed Rescue® W•H•Y traps (www.rescue.com). As used herein, the W•H•Y trap is a trap in accordance with the description of United States Patent Application Publication No. 2009/0151228. The W•H•Y trap has a top chamber and a bottom chamber. The top chamber is baited with two attractants—one of which is a solid contained in a vial (2-methyl-1-butanol) and the other a liquid mixed with water (acetic acid), herein referred to as the W•H•Y top attractant. The bottom chamber is baited with a liquid attractant (heptyl butyrate) poured onto a cotton pad, herein referred to as the W•H•Y bottom attractant. Separation of the top and bottom attractants (otherwise antagonistic to each other when released from the same chamber) in two chambers was a design feature of this trap and creates two focal attraction sources from one trap for different species of wasps, hornets, and yellowjackets. Traps were hung 1.5-2.0 m above the ground on either the fence or tree branches ca. 5 m apart within each trap line. For each trapping experiment, six sets of traps were deployed with their initial trap positions within each set being randomized. To minimize positional effects and obtain more replications, wasp collections and trap re-randomization were carried out when ≧10-20 wasps were caught in the best trap. Each replicate lasted several days depending on wasp flight activity. Captured wasps were removed from the traps and kept in the zip-bags before taking back to the laboratory for recording of the species, gender status, and catch.
# (§2) Experiment 1 (Jul. 22-30, 2009) tested ten synthetic HIPV candidates [(E)-2-hexenal, (Z)-3-hexen-1-ol, (Z)-3-hexenyl acetate, cis-ocimene, linalool, methyl salicylate, geranyl acetate, trans-β-caryophyllene, trans-β-farnesene and (E)-4,8-dimethyl-1,3,7-nonatriene], including several paper wasp EAD-active compounds (see FIG. 2 for details), to determine their potential synergistic effect on the Rescue® W•H•Y trap attractants to paper wasps, yellowjackets, and hornets. Experiment 2 (Aug. 5-13, 2009) tested behavioral responses of the paper wasps and yellowjackets to the Rescue® W•H•Y trap attractants (top attractants only) and its combination with (E)-4,8-dimethyl-1,3,7-nonatriene, one of the EAD-active and behaviorally significant HIPVs, in a dose-response fashion. Experiment 3 (Aug. 5-13, 2009) was conducted to determine the potential behavioral activity of different doses of (E)-4,8-dimethyl-1,3,7-nonatriene alone. The individual (or different doses) HIPVs were loaded into either polyethylene bags or centrifuge tube type of dispensers, and released from the top of the W•H•Y trap chamber. W•H•Y trap attractants (both top and bottom or top only) alone and water (top chamber only) were included in the test as positive and blank controls, respectively. The dispenser types, loading and release rates of the tested semiochemicals are described in Tables 1, 2 and 3.
# (§3) Trap catch data were converted to proportion (P) of total captured wasps within each replicate. Data were then transformed by arcsin√P to meet the assumptions of normality and homogeneity of variances for ANOVA. Means were compared by ANOVA followed by the Ryan-Einot-Gabriel-Welsh (REGW) multiple Q test (SPSS 16.0 for Windows) at α=0.05.
# [2] = tested on: V. pensylvanica; test: Field trapping Experiment 1, Rescue W•H•Y traps; type: in vivo, Vespula pensylvanica; conditions: Exp 1; HIPV added to WHY attractant in the top chamber, or WHY alone
# Method: as §1
# (§4) Experiment 3 (Aug. 5-13, 2009) was conducted to determine the potential behavioral activity of different doses of (E)-4,8-dimethyl-1,3,7-nonatriene alone. The individual (or different doses) HIPVs were loaded into either polyethylene bags or centrifuge tube type of dispensers, and released from the top of the W•H•Y trap chamber. W•H•Y trap attractants (both top and bottom or top only) alone and water (top chamber only) were included in the test as positive and blank controls, respectively. The dispenser types, loading and release rates of the tested semiochemicals are described in Tables 1, 2 and 3.
# as §3
# [3] = tested on: V. acadica; test: Field trapping Experiment 1, Rescue W•H•Y traps; type: in vivo, Vespula acadica; conditions: Exp 1; HIPV added to WHY attractant in the top chamber, or WHY alone
# Method: as §1, §4, §3
# [4] = tested on: P. dominulus workers antennae; test: GC-EAD of synthetic mixture of known HIPVs; design: species or system Polistes dominulus; conditions: 100 ng/μl each in hexane
# Method: Aeration samples of the cherry branches (damaged or undamaged/slightly damaged) were injected (3 μl) splitless into a Varian CP-3800 GC equipped with a polar column (HP-INNOWax; 30 m×0.53 mm×1.0 μm film thickness; Agilent Technologies, Wilmington, Del., USA) and a 1:1 effluent splitter that allowed simultaneous flame ionization detection (FID) and electroantennographic detection (EAD) of the European paper wasp (Polistes dominulus) worker antennae to the separated volatile compounds. Helium was used as the carrier gas, and the injector and detector temperatures were 250° C. and 300° C., respectively. Column temperature was 50° C. for 1 min, rising to 240° C. at 10° C./min, and then held for 10 min. The outlet for the EAD was held in a humidified air stream flowing at 0.5 m/sec over the antennal preparation. EAD recordings were made using silver wire-glass capillary electrodes filled with Beadle-Ephrussi Ringer on freshly cut antennae. The antennal signals were stored and analyzed on a PC equipped with a serial IDAC interface box and the program EAD ver. 2.5 (Syntech, Hilversum, The Netherlands). In addition, GC-EAD responses to a synthetic mixture (100 ng/μl each) containing nine known HIPVs including cis-3-hexen-1-ol, cis-3-hexenyl acetate, trans-β-ocimene, (E)-4,8-dimethyl-1,3,7-nonatriene, linalool, methyl salicylate, geranyl acetate, trans-β-caryophyllene and trans-β-farnesene were tested on the P. dominulus workers. (See FIG. 2.) The same chemicals were also tested on beneficial insect antennae from Chrysopa oculata, Myrmeleon crudelis, Podisus maculiventris, and Hippodarnia convergens. (See FIG. 6.) Antennally active peaks in the aeration samples were identified by GC-MS on an HP 6890 GC series coupled with an HP 5973 Mass Selective Detector using the same type of GC column and conditions as described above. Compounds were identified by comparison of retention times with those of authentic standards and with mass spectra of standards.
# [5] = tested on: P. dominulus; test: Field trapping Experiment 1, Rescue W•H•Y traps; type: in vivo, Polistes dominulus; conditions: Exp 1; HIPV added to WHY attractant in the top chamber, or WHY alone
# Method: as §1, §4, §3
# [6] = tested on: D. arenaria; test: Field trapping Experiment 1, Rescue W•H•Y traps; type: in vivo, Dolichovespula arenaria; conditions: Exp 1; HIPV added to WHY attractant in the top chamber, or WHY alone
# Method: as §1, §2, §3
# [7] = tested on: V. atropilosa; type: in vivo, Vespula atropilosa; conditions: Exp 1; HIPV added to WHY attractant in the top chamber, or WHY alone
Compound,Total Yellowjacket Catches D. maculata [1],Total Yellowjacket Catches V. pensylvanica [2],Total Yellowjacket Catches V. acadica [3],EAD response of worker antennae [4],Total Paper Wasps P. dominulus [5],Total Yellowjacket Catches D. arenaria [6],Total Yellowjacket Catches V. atropilosa [7]
"C=C/C=C(\C)CCC=C(C)C [(E)-4,8-dimethyl-1,3,7-nonatriene]",12,463,1,responded consistently,152,7,3
"COC(=O)c1ccccc1O [Methyl Salicylate, methyl salicylate]",1,226,0,responded consistently,33,4,4
"CC/C=C\CCO [Z-3-Hexanol, (Z)-3-hexen-1-ol]",5,288,0,responded consistently,25,1,0
"CC/C=C\CCOC(C)=O [Z-3-Hexenyl Acetate, (Z)-3-hexenyl acetate]",1,311,1,responded consistently,40,8,0
